Source: the supplement of paper PMC10307832

Key:
Assay in all cases: relative viability (nuclei count vs DMSO), 5 days (fraction); higher = more cells survive
KN-93 + Pictilisib = compound: CN(C/C=C/C1=CC=C(C=C1)Cl)CC2=CC=CC=C2N(CCO)S(=O)(=O)C3=CC=C(C=C3)OC [KN-93] + CS(=O)(=O)N1CCN(Cc2cc3nc(-c4cccc5[nH]ncc45)nc(N4CCOCC4)c3s2)CC1 [Pictilisib] (partner 1 µM)
Outline: (§1)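 Cells from lung cancer lines were seeded into 1536-well plates and, one day later, dosed by pin tool. Treatments were either a single drug or a fixed dose of an anchor drug with five library-drug doses (not always all listed) in √10 steps. After 5 days, nuclei were stained in a one-step fixation (final 0.05% Triton X-100, 1% formaldehyde, 1 ug/ml Hoechst) and counted on 4× images, and relative viability is the treated-to-vehicle nuclei ratio, as the median of duplicate plates.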

KN-93 + Lapatinib = compound: CN(C/C=C/C1=CC=C(C=C1)Cl)CC2=CC=CC=C2N(CCO)S(=O)(=O)C3=CC=C(C=C3)OC [KN-93] + CS(=O)(=O)CCNCc1ccc(-c2ccc3ncnc(Nc4ccc(OCc5cccc(F)c5)c(Cl)c4)c3c2)o1 [Lapatinib] (partner 2 µM)
Outline: as §1

KN-93 + Linsitinib = compound: CN(C/C=C/C1=CC=C(C=C1)Cl)CC2=CC=CC=C2N(CCO)S(=O)(=O)C3=CC=C(C=C3)OC [KN-93] + C[C@]1(O)C[C@@H](c2nc(-c3ccc4ccc(-c5ccccc5)nc4c3)c3c(N)nccn32)C1 [Linsitinib] (partner 1 µM)
Outline: as §1

KN-93 + Crizotinib = compound: CN(C/C=C/C1=CC=C(C=C1)Cl)CC2=CC=CC=C2N(CCO)S(=O)(=O)C3=CC=C(C=C3)OC [KN-93] + C[C@@H](Oc1cc(-c2cnn(C3CCNCC3)c2)cnc1N)c1c(Cl)ccc(F)c1Cl [Crizotinib] (partner 1 µM)
Outline: as §1

KN-93 + Navitoclax = compound: CN(C/C=C/C1=CC=C(C=C1)Cl)CC2=CC=CC=C2N(CCO)S(=O)(=O)C3=CC=C(C=C3)OC [KN-93] + CC1(C)CCC(c2ccc(Cl)cc2)=C(CN2CCN(c3ccc(C(=O)NS(=O)(=O)c4ccc(N[C@H](CCN5CCOCC5)CSc5ccccc5)c(S(=O)(=O)C(F)(F)F)c4)cc3)CC2)C1 [Navitoclax] (partner 0.5 µM)
Outline: as §1

KN-93 + Alpelisib = compound: CN(C/C=C/C1=CC=C(C=C1)Cl)CC2=CC=CC=C2N(CCO)S(=O)(=O)C3=CC=C(C=C3)OC [KN-93] + Cc1nc(NC(=O)N2CCC[C@H]2C(N)=O)sc1-c1ccnc(C(C)(C)C(F)(F)F)c1 [Alpelisib] (partner 2 µM)
Outline: as §1

KN-93 + Bortezomib = compound: CN(C/C=C/C1=CC=C(C=C1)Cl)CC2=CC=CC=C2N(CCO)S(=O)(=O)C3=CC=C(C=C3)OC [KN-93] + CC(C)C[C@H](NC(=O)[C@H](Cc1ccccc1)NC(=O)c1cnccn1)B(O)O [Bortezomib] (partner 0.002 µM)
Outline: as §1

KN-93 + Foretinib = compound: CN(C/C=C/C1=CC=C(C=C1)Cl)CC2=CC=CC=C2N(CCO)S(=O)(=O)C3=CC=C(C=C3)OC [KN-93] + COc1cc2c(Oc3ccc(NC(=O)C4(C(=O)Nc5ccc(F)cc5)CC4)cc3F)ccnc2cc1OCCCN1CCOCC1 [Foretinib] (partner 0.25 µM)
Outline: as §1

KN-93 + Olaparib = compound: CN(C/C=C/C1=CC=C(C=C1)Cl)CC2=CC=CC=C2N(CCO)S(=O)(=O)C3=CC=C(C=C3)OC [KN-93] + O=C(c1cc(Cc2n[nH]c(=O)c3ccccc23)ccc1F)N1CCN(C(=O)C2CC2)CC1 [Olaparib] (partner 8 µM)
Outline: as §1

KN-93 = compound: CN(C/C=C/C1=CC=C(C=C1)Cl)CC2=CC=CC=C2N(CCO)S(=O)(=O)C3=CC=C(C=C3)OC [KN-93]
Outline: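 Hoechst staining, done together with fixation and permeabilisation, marked nuclei for 4× imaging and MetaXpress counting. This followed 5 days without medium change after lung cancer cell lines, kept overnight at 37 °C in 1536-well plates, were pinned with five library-drug doses (not always all listed) spaced by √10 on vehicle-anchored plates. Viability is the ratio of treated-well to vehicle-well nuclei, expressed as a median across plates. Plates passed only at control CV below 25% with at least one doubling.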

Cell Line	relative viability (KN-93 + Pictilisib; first compound 0.253 µM)	relative viability (KN-93 + Pictilisib; first compound 2.53 µM)	relative viability (KN-93 + Pictilisib; first compound 8 µM)	relative viability (KN-93 + Lapatinib; first compound 0.08 µM)	relative viability (KN-93 + Lapatinib; first compound 0.253 µM)	relative viability (KN-93 + Lapatinib; first compound 2.53 µM)	relative viability (KN-93 + Lapatinib; first compound 8 µM)	relative viability (KN-93 + Linsitinib; first compound 0.08 µM)	relative viability (KN-93 + Linsitinib; first compound 0.253 µM)	relative viability (KN-93 + Linsitinib; first compound 2.53 µM)	relative viability (KN-93 + Linsitinib; first compound 8 µM)	relative viability (KN-93 + Crizotinib; first compound 0.08 µM)	relative viability (KN-93 + Crizotinib; first compound 0.253 µM)	relative viability (KN-93 + Crizotinib; first compound 2.53 µM)	relative viability (KN-93 + Crizotinib; first compound 8 µM)	relative viability (KN-93 + Navitoclax; first compound 0.08 µM)	relative viability (KN-93 + Navitoclax; first compound 0.253 µM)	relative viability (KN-93 + Navitoclax; first compound 2.53 µM)	relative viability (KN-93 + Navitoclax; first compound 8 µM)	relative viability (KN-93 + Alpelisib; first compound 0.08 µM)	relative viability (KN-93 + Alpelisib; first compound 0.253 µM)	relative viability (KN-93 + Alpelisib; first compound 2.53 µM)	relative viability (KN-93 + Alpelisib; first compound 8 µM)	relative viability (KN-93 + Bortezomib; first compound 0.08 µM)	relative viability (KN-93 + Bortezomib; first compound 0.253 µM)	relative viability (KN-93 + Bortezomib; first compound 2.53 µM)	relative viability (KN-93 + Bortezomib; first compound 8 µM)	relative viability (KN-93 + Foretinib; first compound 0.08 µM)	relative viability (KN-93 + Foretinib; first compound 0.253 µM)	relative viability (KN-93 + Foretinib; first compound 2.53 µM)	relative viability (KN-93 + Foretinib; first compound 8 µM)	relative viability (KN-93 + Olaparib; first compound 0.08 µM)	relative viability (KN-93 + Olaparib; first compound 0.253 µM)	relative viability (KN-93 + Olaparib; first compound 2.53 µM)	relative viability (KN-93 + Olaparib; first compound 8 µM)	relative viability (KN-93; 0.08 µM)	relative viability (KN-93; 0.253 µM)	relative viability (KN-93; 2.53 µM)	relative viability (KN-93; 8 µM)
Calu-6	1.06	1.09	0.454	0.932	1.25	1.37	0.567	0.784	1	1.16	0.904	0.638	1.09	0.786	0.41	0.805	0.894	0.951	0.36	1.09	1.12	0.981	0.644	1.1	1.05	1.13	0.633	0.861	0.997	0.882	0.622	0.503	0.546	0.699	0.429	0.872	1.09	1.16	0.69
EBC-1	0.317	0.343	0.224	–	–	0.183	0.233	0.905	0.907	1.07	0.869	–	–	0.216	0.192	0.375	0.337	0.274	0.178	0.821	0.889	0.599	0.497	0.577	0.492	0.426	0.243	–	0.0885	0.12	0.124	0.652	0.69	0.652	0.52	–	1.03	1.01	0.693
NCI-H1299	1.03	0.656	0.267	0.992	1.04	0.952	0.708	0.959	1.22	1.02	0.861	0.885	1.14	0.891	0.514	1.07	1.04	1.11	1.02	0.951	1.15	1.09	1.07	0.969	1.01	1.05	0.969	1.12	1.13	1.14	0.904	0.941	1.06	1	0.594	1.01	1.1	1.04	0.796
